Reference: article PMC12305662, “Fragment-Based Development of Small Molecule Inhibitors Targeting Mycobacterium tuberculosis Cholesterol Metabolism” (Journal of Medicinal Chemistry, 2025)
In brackets after ≈: the same amount, converted by molar mass. Several values for one entry are separate records, joined by “and”; a condition that tells them apart may be missing. Identical values can stand only once. Like-named read-outs stand apart in the source and are kept apart here.

Columns and labels:
[1] = biological target: T1, CYP125 (Mycobacterium tuberculosis, UniProt P9WPP1); test: biochemical; assay type: binding
T1 sequence (P9WPP1 whole entry): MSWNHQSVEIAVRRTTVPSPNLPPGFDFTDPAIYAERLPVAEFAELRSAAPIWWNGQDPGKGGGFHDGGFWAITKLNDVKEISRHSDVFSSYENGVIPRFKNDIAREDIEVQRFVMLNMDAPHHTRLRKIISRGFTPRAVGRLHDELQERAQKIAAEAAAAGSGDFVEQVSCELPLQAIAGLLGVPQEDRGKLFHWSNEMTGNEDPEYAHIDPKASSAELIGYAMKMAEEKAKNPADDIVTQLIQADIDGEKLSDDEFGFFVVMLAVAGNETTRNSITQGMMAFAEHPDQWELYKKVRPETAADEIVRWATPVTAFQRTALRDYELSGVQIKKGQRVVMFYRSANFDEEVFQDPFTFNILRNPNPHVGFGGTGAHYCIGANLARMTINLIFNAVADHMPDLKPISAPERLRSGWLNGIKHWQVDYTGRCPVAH

[2] = test system: Mtb (Erdman); test: Extracellular Mtb (Erdman) growth on cholesterol-supplemented (0.01%) media, MABA; assay type: cell-based, Mycobacterium tuberculosis; settings: Mycobacterium tuberculosis, ERDMAN, 168 h, MABA 1 week post-compound treatment, mean ± SD n = 3, read-out: mixed media IC50 (Erdman)
[3] = test system: Mtb CDC1551; test: Depletion of intracellular ATP (BacTiter Glo), Mtb on cholesterol; assay type: cell-based; settings: Mycobacterium tuberculosis, cholesterol as sole carbon source
[4] = test system: several human P450 isoforms (panel: CYP1A, CYP2C19, CYP2C9, CYP2D6, CYP3A4); test: in vitro; assay type: in vitro ADME
Experimental: As several P450 isoforms were inhibited as concentrations <5 μM, the compound has potential to cause drug–drug interactions and further optimization of the benzylpyridine scaffold to improve CYP125/142 selectivity would be required for in vivo applications.
(§1) Table S8. Inhibition of human liver microsomal P450s. Inhibition constants (IC 50 values, µM) of
(§2) following substrates: CYP1A-ethoxyresorufin, CYP2C19- mephenytoin, CYP2C9-tolbutamide, CYP2D6-
(§3) dextromethorphan, CYP3A4-midazolam/testosterone.

[5] = test system: Mtb CDC1551; test: Extracellular Mtb growth on cholesterol, MABA MIC99; assay type: cell-based, Mycobacterium tuberculosis; settings: Mycobacterium tuberculosis, CDC1551, 336 h; cholesterol as sole carbon source; 2 weeks post-compound treatment; read-out: MABA-MIC99 (W2) CDC1551, cholesterol
[6] = test system: H37Rv Mtb; test: Extracellular Mtb growth, MABA MIC90 (drug susceptible strain); assay type: cell-based; settings: Mycobacterium tuberculosis
[7] = biological target: T2, CYP2D6 (Homo sapiens, UniProt P10635); test: Inhibition of human liver microsomal P450s; assay type: in vitro ADME
T2 construct: from tissue; host or cells: human liver microsomes
T2 sequence (P10635 whole entry): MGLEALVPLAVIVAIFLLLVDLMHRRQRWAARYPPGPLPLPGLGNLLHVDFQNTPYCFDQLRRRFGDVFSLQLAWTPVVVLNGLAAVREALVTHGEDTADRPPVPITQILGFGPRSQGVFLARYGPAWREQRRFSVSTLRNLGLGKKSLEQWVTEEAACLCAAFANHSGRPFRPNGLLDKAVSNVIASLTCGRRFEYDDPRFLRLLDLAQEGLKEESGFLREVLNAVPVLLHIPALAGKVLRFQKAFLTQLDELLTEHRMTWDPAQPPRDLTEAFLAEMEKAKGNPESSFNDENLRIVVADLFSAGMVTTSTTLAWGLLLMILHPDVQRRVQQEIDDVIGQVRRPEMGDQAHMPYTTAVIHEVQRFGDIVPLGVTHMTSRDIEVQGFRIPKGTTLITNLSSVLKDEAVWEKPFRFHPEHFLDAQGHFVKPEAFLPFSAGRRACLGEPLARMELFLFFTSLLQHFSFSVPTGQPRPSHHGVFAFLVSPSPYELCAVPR
Excerpt: as §1, §2, §3

[8] = biological target: T3, CYP3A4 (Homo sapiens, UniProt P08684); test: Inhibition of human liver microsomal P450s; assay type: in vitro ADME
T3 construct: from tissue; host or cells: human liver microsomes
T3 sequence (P08684 whole entry): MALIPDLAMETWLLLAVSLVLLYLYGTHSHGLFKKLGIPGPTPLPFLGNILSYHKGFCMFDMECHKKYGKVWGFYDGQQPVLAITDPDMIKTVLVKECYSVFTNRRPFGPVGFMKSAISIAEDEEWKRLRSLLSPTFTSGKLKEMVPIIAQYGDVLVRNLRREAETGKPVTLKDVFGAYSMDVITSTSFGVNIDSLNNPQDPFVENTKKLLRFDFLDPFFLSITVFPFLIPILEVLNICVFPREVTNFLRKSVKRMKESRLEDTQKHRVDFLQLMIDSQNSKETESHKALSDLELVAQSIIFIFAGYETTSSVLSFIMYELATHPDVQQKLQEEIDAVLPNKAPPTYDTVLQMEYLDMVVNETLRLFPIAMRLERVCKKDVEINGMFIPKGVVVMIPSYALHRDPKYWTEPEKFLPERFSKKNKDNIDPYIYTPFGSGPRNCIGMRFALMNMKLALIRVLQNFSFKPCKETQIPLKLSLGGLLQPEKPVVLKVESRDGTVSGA
Excerpt: as §1, §2, §3

[9] = biological target: T4, CYP2C19 (Homo sapiens, UniProt P33261); test: Inhibition of human liver microsomal P450s; assay type: in vitro ADME
T4 construct: from tissue; host or cells: human liver microsomes
T4 sequence (P33261 whole entry): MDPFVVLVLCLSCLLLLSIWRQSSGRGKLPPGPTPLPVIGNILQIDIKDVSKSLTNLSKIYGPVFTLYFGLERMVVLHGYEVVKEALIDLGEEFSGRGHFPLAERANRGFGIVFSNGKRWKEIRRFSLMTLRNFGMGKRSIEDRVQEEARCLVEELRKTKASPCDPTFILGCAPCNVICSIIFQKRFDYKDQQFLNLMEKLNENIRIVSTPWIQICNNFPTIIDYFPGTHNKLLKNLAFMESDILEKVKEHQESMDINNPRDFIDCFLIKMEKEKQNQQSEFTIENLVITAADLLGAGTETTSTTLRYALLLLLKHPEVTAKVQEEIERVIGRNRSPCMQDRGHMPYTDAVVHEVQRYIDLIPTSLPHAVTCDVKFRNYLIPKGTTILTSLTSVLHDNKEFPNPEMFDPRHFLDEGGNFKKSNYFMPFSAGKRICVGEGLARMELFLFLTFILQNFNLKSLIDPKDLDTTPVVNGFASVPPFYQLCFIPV
Excerpt: as §1, §2, §3

[10] = biological target: T5, CYP2C9 (Homo sapiens, UniProt P11712); test: Inhibition of human liver microsomal P450s; assay type: in vitro ADME
T5 construct: from tissue; host or cells: human liver microsomes
T5 sequence (P11712 whole entry): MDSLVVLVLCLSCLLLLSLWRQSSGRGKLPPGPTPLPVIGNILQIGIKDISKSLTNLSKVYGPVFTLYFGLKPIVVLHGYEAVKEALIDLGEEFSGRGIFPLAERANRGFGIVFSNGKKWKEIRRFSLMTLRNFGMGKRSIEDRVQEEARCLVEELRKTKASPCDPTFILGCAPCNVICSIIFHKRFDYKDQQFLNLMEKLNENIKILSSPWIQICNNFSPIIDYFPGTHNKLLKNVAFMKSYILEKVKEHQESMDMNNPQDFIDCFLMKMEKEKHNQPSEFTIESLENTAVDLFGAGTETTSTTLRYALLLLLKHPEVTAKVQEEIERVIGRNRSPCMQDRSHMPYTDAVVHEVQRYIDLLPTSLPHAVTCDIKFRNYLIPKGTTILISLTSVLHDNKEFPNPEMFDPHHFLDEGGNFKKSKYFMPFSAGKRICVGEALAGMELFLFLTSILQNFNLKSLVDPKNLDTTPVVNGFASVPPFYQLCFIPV
Excerpt: as §1, §2, §3

[11] = test system: Mtb CDC1551; test: Depletion of intracellular ATP, Mtb on glucose; settings: read-out: ATP IC50 (W1) CDC1551, glucose media; glucose as sole carbon source; 1 week
Experimental: (Mtb) H37Rv or CDC1551 strains were grown in Middlebrook 7H9 broth medium (Difco) supplemented with 0.3 g/L casitone, 0.81 g/L NaCl, 0.05% (v/v) tyloxapol, and either 97 mg/L cholesterol, 4 g/L glucose, or 0.2% glycerol. For inhibitor assays, a 10-fold serial dilution of the test compounds was made in the desired medium in duplicate rows of a 96-well plate. Mtb cells were then added to all the wells at the final concentration of 1 × 10^4 CFU, and plates were incubated at 37 °C for up to 15 days. Minimum inhibitory concentrations (MIC99) were determined using the Microplate Alamar Blue Assay (MABA) on day 15.
BacTiter Glo reagent (Promega) was added to microtiter plates (1:10 dilution) and luminescence was recorded after 15 min of incubation at room temperature. […] Isoniazid or p-amino salicylic acid were used as positive control compounds for all experiments. Reported MIC and IC50 values are the mean of duplicate treatments.

[12] = test system: uninfected THP-1 macrophages; test: THP-1 cytotoxicity (ATPLite); settings: concentrations up to 50 μM
[13] = biological target: CYP142 (Mycobacterium tuberculosis, UniProt P9WPL5)
Chain of CYP142 (P9WPL5 whole entry): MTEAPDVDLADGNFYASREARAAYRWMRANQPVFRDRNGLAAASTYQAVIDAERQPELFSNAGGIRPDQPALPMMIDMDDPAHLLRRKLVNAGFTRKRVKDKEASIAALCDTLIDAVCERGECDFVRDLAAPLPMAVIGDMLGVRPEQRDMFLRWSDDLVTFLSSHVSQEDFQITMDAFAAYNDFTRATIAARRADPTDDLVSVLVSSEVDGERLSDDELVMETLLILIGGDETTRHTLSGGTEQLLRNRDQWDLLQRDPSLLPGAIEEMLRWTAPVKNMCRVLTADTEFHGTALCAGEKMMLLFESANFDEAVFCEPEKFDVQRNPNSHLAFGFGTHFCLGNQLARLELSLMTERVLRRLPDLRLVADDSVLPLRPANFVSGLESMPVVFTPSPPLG

[14] = test system: Mtb H37Rv; test: Depletion of intracellular ATP (BacTiter Glo), Mtb on cholesterol; assay type: cell-based, Mycobacterium tuberculosis; settings: 2 weeks post-compound treatment
[15] = test system: Mtb/iniB reporter (cell wall damage response); assay type: cell-based, Mycobacterium tuberculosis; settings: 50–0.05 μM, days 1, 2, 4, 7
[16] = test system: HepG2 cells; test: HepG2 cytotoxicity assay (CellTiter Glo ATP); assay type: cell-based; settings: ATP (RLU)
Experimental: Compounds were tested against HepG2 cells for their ability to inhibit ATP production as a measure of cytotoxicity. HepG2 cells were cultured in DMEM supplemented with 10% (v/v) FBS, Hepes, L-glutamine and glucose or galactose. Compounds were serial diluted in microtiter plates (as described above) and HepG2 cells were added at a final concentration of 20,000 cells per well. Inhibition of ATP levels was noted by adding CellTiter Glo (Promega) reagent at a 1:10 dilution and luminescence was noted after 10 min incubation at room temperature.

[17] = test system: Mtb H37Rv; test: Extracellular Mtb growth on cholesterol, MABA MIC99; assay type: cell-based, Mycobacterium tuberculosis; settings: Mycobacterium tuberculosis, H37RV
[18] = test system: Mtb/radA reporter (DNA damage response); assay type: cell-based, Mycobacterium tuberculosis; settings: 50–0.05 μM, days 1, 2, 4, 7
[19] = test system: Mtb H37Rv pATB45luc in THP-1 macrophages; test: microbe, parasite or virus in culture; assay type: cell-based; settings: Mycobacterium tuberculosis, 120 h, 5 days post-compound treatment, mean ± SD n = 2, read-out: intracellular growth Mtb IC50
[20] = test system: Mtb/recA reporter (DNA damage response); assay type: cell-based, Mycobacterium tuberculosis; settings: 50–0.05 μM, days 1, 2, 4, 7
[21] = test system: MDR-TB strain K26b00MR 113; test: microbe, parasite or virus in culture; assay type: cell-based, Mycobacterium tuberculosis; settings: Mycobacterium tuberculosis, K26b00MR 113
[22] = biological target: T1, CYP125; test: LC-MS substrate turnover assay (cholest-4-en-3-one); assay type: biochemical
[23] = proportion of binding affinity attributed to the 1a-ii hotspot

`COc1ccc(CNc2ccc(Cc3ccncc3)cc2)cc1` [5m, N-(4-Methoxybenzyl)-4-(pyridin-4-ylmethyl)aniline] was tested, and the “improvement in binding affinity KD 1a/5m, CYP125” value [1] was over 1000 fold, the “ligand efficiency (LE)” value [1] was over 0.4 and the “group efficiency (GE) of the benzylamine” value ([1]; CYP125 and CYP142) was 0.20–0.50. The Kd ([1]; KD, dual CYP125/142 ligand) was 0.04 to 0.16 µM and ~0.1 µM, the “ΔΔG [5m-1a], CYP125” value [1, 23] was 0.5 and the Kd ([1]; read-out: KD (μM) CYP125) was 0.04 ± 0.021 µM. For the same molecule, the IC50 [2] was 2900 ± 190 nM, the IC50 ([3]; CDC1551, 168 h, 1 week post-compound treatment, read-out: ATP-IC50 (W1) CDC1551, cholesterol) was 590 nM and the IC50 ([3]; CDC1551, 336 h, 2 weeks post-compound treatment, read-out: ATP-IC50 (W2) CDC1551, cholesterol) was 9400 nM. The IC50 [4] was under 5000 nM, the MIC99 [5] was 13 µM (≈ 3.96 µg/mL) and the MIC90 ([6]; 168 h, read-out: MIC90 (W1) H37Rv) was 0.78 µM (≈ 0.237 µg/mL). The MIC90 ([6]; 336 h, MABA 2 weeks post-compound treatment, read-out: MIC90 (W2) H37Rv) was 6.25 µM (≈ 1.9 µg/mL), the IC50 [7] was 330 nM and the IC50 ([8]; CYP3A4 IC50 (midazolam), substrate midazolam (first value of cell)) was 520 nM. The IC50 ([8]; CYP3A4 IC50 (testosterone), substrate testosterone (second value of cell)) was 1820 nM, the IC50 [9] was 440 nM and the IC50 [10] was 1860 nM. The IC50 [11] was 4700 nM, the “THP-1 cytotoxicity in words” value [12] was “no effect on THP-1 cell viability” and the Kd [13] was 80 nM. For the same molecule, the “ΔΔG [5m-1a], CYP142” value [13, 23] was 0.2, the IC50 ([14]; Mycobacterium tuberculosis, H37RV, 336 h, H37Rv, bovine serum albumin, read-out: ATP IC50 (W2), cholesterol media with BSA) was 2300 nM and the IC50 ([14]; Mycobacterium tuberculosis, H37RV, 336 h, H37Rv, casitone, read-out: ATP IC50 (W2), cholesterol media with casitone) was 1500 nM. For the same molecule, the IC50 ([14]; Mycobacterium tuberculosis, H37RV, 336 h, cholesterol as sole carbon source, read-out: ATP-IC50 (W2) H37Rv, cholesterol) was 1200 nM, the IC50 ([14]; cholesterol as sole carbon source, read-out: ATP-IC50 (W2) H37Rv, cholesterol) was 1100 nM and the “upregulation of iniB reporter” value [15] was “did not induce the upregulation”. For the same molecule, the “HepG2 LD50 / IC50, galactose media” value ([16]; galactose-containing media, mean ± SD n = 2) was 3200 nM, the “HepG2 LD50 / IC50, glucose media” value ([16]; standard (glucose-containing) media) was over 50000 nM and the MIC99 ([17]; 336 h, cholesterol as sole carbon source, 2 weeks post-compound treatment, read-out: MABA-MIC99 (W2) H37Rv, cholesterol) was 1.5 µM. The MIC99 ([17]; 336 h, cholesterol as sole carbon source, 2 weeks, conversion of 1.5 μM, read-out: MIC99 H37Rv, cholesterol) was about 0.46 µg/mL, the MIC99 ([17]; read-out: MIC99, growth of Mtb in extracellular assays) was 0.4 to 1.5 µM and the “upregulation of radA reporter” value [18] was “did not induce the upregulation”. The IC50 [19] was 1700 ± 180 nM, the “upregulation of recA reporter” value [20] was “did not induce the upregulation” and the MIC90 ([21]; 168 h, read-out: MIC90 (W1) MDR-TB, MABA 1 week post-compound treatment) was 0.39 µM (≈ 0.119 µg/mL). The MIC90 ([21]; 336 h, read-out: MIC90 (W2) MDR-TB, MABA 2 weeks post-compound treatment) was 12.5 µM (≈ 3.8 µg/mL), the IC50 ([22]; CYP125 0.5 μM, cholest-4-en-3-one 5 µM, LC-MS, read-out: CYP125A1 IC50) was 350 ± 40 nM and the Ki ([22]; estimated by Cheng-Prusoff, cholest-4-en-3-one Km CYP125 = 2.1 µM, read-out: CYP125A1 KI) was < 1000 nM and 100 nM. For the same molecule, the Ki ([22]; one bound given for both enzymes, read-out: KI, enzyme activity in vitro (CYP125/142)) was under 100 nM and the Ki ([22]; one range given for both enzymes, read-out: KI, catalytic activity in vitro (CYP125/142)) was 50 to 100 nM.
